Values of other authors, collected in patent publication US20150306063A1, “COMPOSITION AND METHOD FOR VAGINAL THERAPY” (priority 2014, published 2015).

Settings: elderly patients, including patients older than 65 years of age

SMILES: COc1ccccc1OCC(O)COC(N)=O (stereo not shown) [Methocarbamol, 3-(2-methoxyphenoxy)-1,2-propanediol 1-carbamate]
- half-life in the elderly as compared with a younger population: only slightly prolonged
